Legend:
Assay in all cases: radiometric filter-binding kinase assay, Kinase HotSpot
Settings in all cases: compound 0.5 µM; ATP 10 µM
[1] = molecular target: CDK6 CCND1 (human) (UniProt Q00534+P24385)
[2] = molecular target: PKN2 (human) (UniProt Q16513)
[3] = molecular target: GRK6 (human) (UniProt P43250)
[4] = molecular target: ALK (human) (UniProt Q9UM73)
[5] = molecular target: SIK2 (human) (UniProt Q9H0K1)
[6] = molecular target: LTK (human) (UniProt P29376)
[7] = molecular target: CSNK1G1 (human) (UniProt Q9HCP0)
[8] = molecular target: CDK5 CDK5R1 p35 (human) (UniProt Q00535+Q15078)
[9] = system: FLT4 (human), P35916 [Q890H]
[10] = molecular target: AKT2 (human) (UniProt P31751)
[11] = molecular target: STK4 (human) (UniProt Q13043)
[12] = molecular target: ULK2 (human) (UniProt Q8IYT8)
[13] = molecular target: BRSK1 (human) (UniProt Q8TDC3)
[14] = molecular target: CDK9 CCNT1 (human) (UniProt P50750+O60563)
[15] = molecular target: FGFR1 (human) (UniProt P11362)
[16] = molecular target: MAP3K11 (human) (UniProt Q16584)
[17] = molecular target: TSSK1B (human) (UniProt Q9BXA7)
[18] = molecular target: PRKCA (human) (UniProt P17252)
[19] = molecular target: GSG2 (human) (UniProt Q8TF76)
[20] = molecular target: MAP2K2 (human) (UniProt P36507)
[21] = molecular target: STK25 (human) (UniProt O00506)
[22] = molecular target: WEE1 (human) (UniProt P30291)
[23] = molecular target: MAP2K1 (human) (UniProt Q02750)
[24] = molecular target: STK16 (human) (UniProt O75716)
[25] = molecular target: PIM2 (human) (UniProt Q9P1W9)
[26] = molecular target: IGF1R (human) (UniProt P08069)
[27] = molecular target: FES (human) (UniProt P07332)
[28] = molecular target: MAPK13 (human) (UniProt O15264)
[29] = molecular target: STK17A (human) (UniProt Q9UEE5)
[30] = molecular target: VRK1 (human) (UniProt Q99986)
[31] = molecular target: GSK3A (human) (UniProt P49840)
[32] = molecular target: TAOK2 (human) (UniProt Q9UL54)
[33] = molecular target: PIM3 (human) (UniProt Q86V86)
[34] = molecular target: TNK2 (human) (UniProt Q07912)
[35] = molecular target: STK33 (human) (UniProt Q9BYT3)
[36] = molecular target: NEK3 (human) (UniProt P51956)
[37] = molecular target: MST1R (human) (UniProt Q04912)
[38] = molecular target: PRKD3 (human) (UniProt O94806)
[39] = molecular target: NTRK2 (human) (UniProt Q16620)
[40] = molecular target: RPS6KA5 KD2 (human) (UniProt O75582)
[41] = molecular target: RPS6KA3 KD1 KD2 (human) (UniProt P51812)
[42] = molecular target: NEK6 (human) (UniProt Q9HC98)
NEK6 (human), sequence (Q9HC98 whole entry, looked up): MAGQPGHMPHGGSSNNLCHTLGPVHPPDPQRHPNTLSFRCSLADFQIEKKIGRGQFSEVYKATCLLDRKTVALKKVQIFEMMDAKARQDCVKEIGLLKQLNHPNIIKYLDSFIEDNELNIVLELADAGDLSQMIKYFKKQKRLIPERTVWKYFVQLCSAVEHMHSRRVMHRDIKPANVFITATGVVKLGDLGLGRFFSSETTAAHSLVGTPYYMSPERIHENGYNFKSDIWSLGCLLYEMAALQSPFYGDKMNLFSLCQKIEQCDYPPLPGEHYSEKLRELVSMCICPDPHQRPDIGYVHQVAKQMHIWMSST

MAP3K11 (human), sequence (Q16584 whole entry, looked up): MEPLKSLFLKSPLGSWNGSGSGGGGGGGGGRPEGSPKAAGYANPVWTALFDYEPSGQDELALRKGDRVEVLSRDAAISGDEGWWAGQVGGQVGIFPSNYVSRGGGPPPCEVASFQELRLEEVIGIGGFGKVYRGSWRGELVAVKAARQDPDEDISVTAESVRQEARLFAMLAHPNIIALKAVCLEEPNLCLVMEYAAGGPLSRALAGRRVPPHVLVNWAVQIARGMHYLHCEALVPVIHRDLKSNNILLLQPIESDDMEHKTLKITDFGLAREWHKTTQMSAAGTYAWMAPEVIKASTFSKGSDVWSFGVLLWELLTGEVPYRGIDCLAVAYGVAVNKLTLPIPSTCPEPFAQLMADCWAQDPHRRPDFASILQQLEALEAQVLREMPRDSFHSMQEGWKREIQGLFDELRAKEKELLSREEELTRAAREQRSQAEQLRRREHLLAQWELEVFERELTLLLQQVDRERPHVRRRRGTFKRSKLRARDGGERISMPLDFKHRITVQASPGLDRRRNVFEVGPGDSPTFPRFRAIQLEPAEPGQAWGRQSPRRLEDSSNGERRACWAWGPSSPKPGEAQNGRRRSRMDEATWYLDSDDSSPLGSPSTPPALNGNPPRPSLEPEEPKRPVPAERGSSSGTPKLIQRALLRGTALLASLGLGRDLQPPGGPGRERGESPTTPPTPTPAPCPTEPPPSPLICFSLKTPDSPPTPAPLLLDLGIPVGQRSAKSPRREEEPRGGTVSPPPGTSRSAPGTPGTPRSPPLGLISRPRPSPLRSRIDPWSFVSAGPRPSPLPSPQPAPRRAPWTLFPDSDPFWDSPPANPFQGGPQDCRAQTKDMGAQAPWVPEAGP
BRSK1 (human), sequence (Q8TDC3 whole entry, looked up): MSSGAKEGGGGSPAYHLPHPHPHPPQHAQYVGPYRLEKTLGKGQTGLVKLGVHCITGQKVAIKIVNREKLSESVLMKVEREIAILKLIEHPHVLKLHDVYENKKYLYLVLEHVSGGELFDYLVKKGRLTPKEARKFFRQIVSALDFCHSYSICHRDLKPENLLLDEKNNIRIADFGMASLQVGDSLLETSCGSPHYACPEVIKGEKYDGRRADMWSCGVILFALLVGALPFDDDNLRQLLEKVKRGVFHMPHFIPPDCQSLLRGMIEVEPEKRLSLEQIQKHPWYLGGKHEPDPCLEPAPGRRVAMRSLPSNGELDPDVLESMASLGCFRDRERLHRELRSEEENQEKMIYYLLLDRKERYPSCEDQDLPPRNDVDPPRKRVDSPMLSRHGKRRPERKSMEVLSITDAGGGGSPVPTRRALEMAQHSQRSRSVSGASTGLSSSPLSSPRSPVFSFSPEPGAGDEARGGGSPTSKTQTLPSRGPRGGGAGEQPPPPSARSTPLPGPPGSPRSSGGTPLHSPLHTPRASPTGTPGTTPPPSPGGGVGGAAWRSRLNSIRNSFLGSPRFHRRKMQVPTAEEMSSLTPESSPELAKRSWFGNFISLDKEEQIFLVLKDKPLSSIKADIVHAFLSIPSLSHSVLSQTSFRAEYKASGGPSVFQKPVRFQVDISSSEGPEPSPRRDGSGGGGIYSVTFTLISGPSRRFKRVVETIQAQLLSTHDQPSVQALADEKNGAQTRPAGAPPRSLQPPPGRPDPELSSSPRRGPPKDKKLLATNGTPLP
CSNK1G1 (human), sequence (Q9HCP0 whole entry, looked up): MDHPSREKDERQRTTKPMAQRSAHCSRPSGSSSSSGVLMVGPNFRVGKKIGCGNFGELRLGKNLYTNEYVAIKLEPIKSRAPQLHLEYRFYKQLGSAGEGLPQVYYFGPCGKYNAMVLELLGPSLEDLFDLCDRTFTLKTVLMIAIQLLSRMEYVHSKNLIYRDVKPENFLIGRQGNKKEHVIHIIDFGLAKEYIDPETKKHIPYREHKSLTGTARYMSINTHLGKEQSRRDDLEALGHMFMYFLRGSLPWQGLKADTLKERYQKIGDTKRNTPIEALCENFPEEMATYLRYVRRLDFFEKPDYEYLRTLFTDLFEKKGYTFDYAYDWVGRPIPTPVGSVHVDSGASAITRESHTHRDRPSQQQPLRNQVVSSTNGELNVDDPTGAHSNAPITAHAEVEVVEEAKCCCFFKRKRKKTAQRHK
PRKD3 (human), sequence (O94806 whole entry, looked up): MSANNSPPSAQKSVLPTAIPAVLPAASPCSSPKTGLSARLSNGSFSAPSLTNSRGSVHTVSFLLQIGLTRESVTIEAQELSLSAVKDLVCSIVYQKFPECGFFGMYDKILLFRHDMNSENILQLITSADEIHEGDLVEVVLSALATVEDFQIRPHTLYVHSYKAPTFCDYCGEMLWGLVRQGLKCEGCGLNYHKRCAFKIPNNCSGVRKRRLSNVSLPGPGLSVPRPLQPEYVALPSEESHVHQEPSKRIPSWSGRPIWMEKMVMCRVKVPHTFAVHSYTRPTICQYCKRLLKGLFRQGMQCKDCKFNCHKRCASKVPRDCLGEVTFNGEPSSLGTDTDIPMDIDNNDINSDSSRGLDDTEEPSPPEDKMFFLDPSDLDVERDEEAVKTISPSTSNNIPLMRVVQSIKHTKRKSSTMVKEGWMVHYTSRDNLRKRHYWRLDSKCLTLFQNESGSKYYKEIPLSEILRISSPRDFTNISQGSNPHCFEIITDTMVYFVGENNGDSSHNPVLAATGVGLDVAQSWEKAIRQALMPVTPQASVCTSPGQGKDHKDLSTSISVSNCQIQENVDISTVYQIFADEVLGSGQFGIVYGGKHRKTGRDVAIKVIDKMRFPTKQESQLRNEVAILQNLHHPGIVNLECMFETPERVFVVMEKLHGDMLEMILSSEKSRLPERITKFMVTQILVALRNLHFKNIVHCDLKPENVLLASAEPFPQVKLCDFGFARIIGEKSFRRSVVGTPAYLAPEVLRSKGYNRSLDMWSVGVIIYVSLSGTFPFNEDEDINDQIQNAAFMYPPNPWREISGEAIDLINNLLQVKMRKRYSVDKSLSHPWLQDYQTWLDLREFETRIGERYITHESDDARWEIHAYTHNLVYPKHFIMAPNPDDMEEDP
FGFR1 (human), sequence (P11362 whole entry, looked up): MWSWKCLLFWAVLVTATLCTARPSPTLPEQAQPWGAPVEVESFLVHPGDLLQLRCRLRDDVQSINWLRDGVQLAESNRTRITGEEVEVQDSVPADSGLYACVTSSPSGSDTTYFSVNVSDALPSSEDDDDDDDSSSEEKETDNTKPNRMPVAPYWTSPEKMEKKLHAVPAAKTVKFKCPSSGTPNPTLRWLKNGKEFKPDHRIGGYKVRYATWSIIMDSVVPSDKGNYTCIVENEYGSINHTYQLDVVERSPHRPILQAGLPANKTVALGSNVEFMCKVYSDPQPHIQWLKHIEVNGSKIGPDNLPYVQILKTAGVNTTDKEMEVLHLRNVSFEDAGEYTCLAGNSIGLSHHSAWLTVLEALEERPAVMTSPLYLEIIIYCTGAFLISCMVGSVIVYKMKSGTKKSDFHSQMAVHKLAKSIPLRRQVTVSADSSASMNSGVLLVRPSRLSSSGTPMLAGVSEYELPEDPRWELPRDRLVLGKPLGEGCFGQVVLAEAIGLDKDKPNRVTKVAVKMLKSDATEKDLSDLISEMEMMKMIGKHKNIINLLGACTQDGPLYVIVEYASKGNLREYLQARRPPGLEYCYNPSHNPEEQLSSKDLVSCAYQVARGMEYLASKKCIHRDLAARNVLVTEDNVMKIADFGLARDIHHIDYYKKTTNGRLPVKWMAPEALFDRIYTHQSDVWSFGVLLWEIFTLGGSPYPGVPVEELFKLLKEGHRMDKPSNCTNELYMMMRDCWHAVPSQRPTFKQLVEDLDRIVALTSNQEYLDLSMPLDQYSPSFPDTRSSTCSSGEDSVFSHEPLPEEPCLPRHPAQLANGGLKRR
STK16 (human), sequence (O75716 whole entry, looked up): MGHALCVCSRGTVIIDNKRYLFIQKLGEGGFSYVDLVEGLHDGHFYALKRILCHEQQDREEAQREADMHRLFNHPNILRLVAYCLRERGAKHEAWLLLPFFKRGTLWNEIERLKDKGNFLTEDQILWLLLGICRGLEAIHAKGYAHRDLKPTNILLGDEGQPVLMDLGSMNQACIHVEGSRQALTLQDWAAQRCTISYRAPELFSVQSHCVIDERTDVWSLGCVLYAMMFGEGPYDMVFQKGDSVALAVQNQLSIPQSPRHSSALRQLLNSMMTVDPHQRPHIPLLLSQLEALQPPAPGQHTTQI

SMILES: CN(C)c1ccc(/C=C2\C(=O)Nc3ccccc32)cc1
- residual activity [1]: 101%
- residual activity [2]: 98.9%
- residual activity [3]: 102%
- residual activity [4]: 99.7%
- residual activity [5]: 101%
- residual activity [6]: 96.8%
- residual activity [7]: 93%
- residual activity [8]: 104%
- residual activity [9]: 98.8%
- residual activity [10]: 98.1%
- residual activity [11]: 93.2%
- residual activity [12]: 97.1%
- residual activity [13]: 99.6%
- residual activity [14]: 94.5%
- residual activity [15]: 92%
- residual activity [16]: 88.4%
- residual activity [17]: 102%
- residual activity [18]: 94.5%
- residual activity [19]: 88.5%
- residual activity [20]: 99.4%
- residual activity [21]: 90.2%
- residual activity [22]: 88.6%
- residual activity [23]: 97.8%
- residual activity [24]: 87.9%
- residual activity [25]: 82.4%
- residual activity [26]: 101%
- residual activity [27]: 97.8%
- residual activity [28]: 97.1%
- residual activity [29]: 93.8%
- residual activity [30]: 89%
- residual activity [31]: 104%
- residual activity [32]: 102%
- residual activity [33]: 102%
- residual activity [34]: 101%
- residual activity [35]: 99.8%
- residual activity [36]: 95.2%
- residual activity [37]: 106%
- residual activity [38]: 99.2%
- residual activity [39]: 54.8%
- residual activity [40]: 98.7%
- residual activity [41]: 92.6%
- residual activity [42]: 96.9%
